# Measurements as given in publication PMC11675580, “Supersaturated Gel Formulation (SGF) of Atorvastatin at a Maximum Dose of 80 mg with Enhanced Solubility, Dissolution, and Physical Stability” (Gels, 2024).
# Assay: Drug release kinetics (first-order fit)
# Format: physicochemical
# Description: The drug release data was fitted to kinetic models of first-order, and the coefficient of determination (r^2) was indicative of best-fit model to describe drug release kinetics.
smiles,measurement,setting,value
"CC(C)c1c(C(=O)Nc2ccccc2)c(-c2ccccc2)c(-c2ccc(F)cc2)n1CC[C@@H](O)C[C@@H](O)CC(=O)O [ATR, Atorvastatin calcium trihydrate]","Drug release rate constant (first-order rate constant, K1)","Water, release data until 30 min",1.092
same,"Drug release rate constant (first-order rate constant, K1)","pH 1.2, release data until 30 min",0.608
same,"Drug release rate constant (first-order rate constant, K1)","pH 4.0, release data until 30 min",0.752
same,"Drug release rate constant (first-order rate constant, K1)","pH 6.8, release data until 30 min",1.040
